According to patent publication US11685716B2, “Plant growth inhibiting agent, and plant growth inhibiting method using same” (NATIONAL UNIVERSITY CORPORATION KUMAMOTO UNIVERSITY, priority 2017, dated 2023):

What was measured:
thale cress = assay: Plant growth inhibition index, thale cress on agar medium in test tube (Evaluation 8, 9); type: in vivo, thale cress (Col-0, wild-type strain); design: key: 0: No effect; 1: Growth of the root part was inhibited 50% or less compared with non-treated area.; 2: Growth of the root part was inhibited 50% or more compared with non-treated area.; 3: Growth of the root part was substantially inhibited.; 4: Germination was inhibited; conditions: for Index: Concentration 200 μM, 8 days (Evaluation 9, Table 2)
Method: 0.44% (w/v) Mixed salts for Murashige and Skoog medium (SIGMA), 1% (w/v) sucrose, and 0.05% (w/v) MES were mixed, and pH of the solution was adjusted to pH 5.7 with potassium hydroxide. 1.5% (w/v) Agar was added to the mixture, which was sterilized at 120° C. in an autoclave for 20 minutes. The test compound and dimethylformamide containing 1.5% of polyoxyethylenesorbitan monolaurate for a control experiment, were added at this stage and blended. In addition, the compound was used by adjusting an addition concentration to 200 μM. Four ml each of the medium was dispensed in sterile glass test tube ([…] RIKA GLASS CO., LTD.) to prepare agar medium.
As a plant material, Col-0, which is a wild-type strain of thale cress, was used.
Seeds, after their surfaces were sterilized, were planted on the agar medium, and the growth of the plant was carried out in a plant incubator (CFH-405) under the conditions of an illuminance of 3 at 23° C. with constant light. The plants on the agar medium were grown for 8 days in the chamber.
The plant growth inhibition effect of the compounds was evaluated by conversion to indexes according to the following investigation criteria.

Japanese millet = assay: Seed treatment, plant growth inhibition index (Evaluation 11); type: in vivo; design: key: 0: No effect; 1: Growth of the root part was inhibited 50% or less compared with non-treated area.; 2: Growth of the root part was inhibited 50% or more compared with non-treated area.; 3: Growth of the root part was substantially inhibited.; 4: Germination was inhibited
Method: (§1) The compound of the present invention (2 mg) was dissolved in a 1.5% Tween dimethylformamide solution (100 μL) to use as a test chemical solution.
(§2) Eight mL of sterilized water was poured to a cherry cup (100Φ×45 mm) lined with a filter paper, subsequently 81.1 μL of the sterilized water was removed, and 81.1 μL of the test chemical solution was added such that a final concentration of the compound was 800 μM.
(§3) Further, cherry cups were similarly prepared such that a final concentration of the compound was 200 μM.
(§4) Seeds (Japanese millet: 3 grains, velvet leaf: 6 grains, Ragweed: 8 grains, morning glory: 2 grains) were planted on the filter paper in the cherry cups, followed by growing the plants in a thermostatic chamber at 25° C. under a light-dark cycle in which a light period is 12 hours and a dark period is 12 hours for 6 days.
(§5) In addition, with regards to the compound (9a) and the compound (9b), the plants were tested for 7 days.
(§6) Plant growth inhibition effects of the compounds were evaluated by conversion to indexes according to the following investigation criteria.

Ragweed = assay: as above; type: in vivo; design: key: 0: No effect; 1: Growth of the root part was inhibited 50% or less compared with non-treated area.; 2: Growth of the root part was inhibited 50% or more compared with non-treated area.; 3: Growth of the root part was substantially inhibited.; 4: Germination was inhibited
Method: as §1, §2, §3, §4, §5, §6

morning glory = assay: as above; type: in vivo; design: key: 0: No effect; 1: Growth of the root part was inhibited 50% or less compared with non-treated area.; 2: Growth of the root part was inhibited 50% or more compared with non-treated area.; 3: Growth of the root part was substantially inhibited.; 4: Germination was inhibited
Method: as §1, §2, §3, §4, §5, §6

velvet leaf [1] = assay: as above; type: in vivo; design: key: 0: No effect; 1: Growth of the root part was inhibited 50% or less compared with non-treated area.; 2: Growth of the root part was inhibited 50% or more compared with non-treated area.; 3: Growth of the root part was substantially inhibited.; 4: Germination was inhibited
Method: as §1, §2, §3, §4, §5, §6

Japanese bristlegrass = assay: Spray treatment to stems and leaves, killing weed index (Evaluation 10); type: in vivo; conditions: 2000 g active ingredient per hectare, sprayed liquid amount 250 L/ha, two weeks later
Method: (§7) POA allyl phenyl ether (4.1 parts by weight), POE-POP glycol (1 part by weight), POE sorbitan laurate (0.8 parts by weight), glycerin (2.6 parts by weight), dimethylformamide (65.9 parts by weight), N-methylpyrrolidone (5.1 parts by weight), cyclohexanone (15.4 parts by weight), and aromatic hydrocarbon (5.1 parts by weight) were mixed and dissolved to prepare an emulsion. The compounds of the present invention (4 mg) were dissolved in this emulsion (100 μL) to prepare a test emulsion. In addition, POA means “polyoxyalkylene”, POE means “polyoxyethylene”, and POP means “polyoxypropylene.”
(§8) Four hundred μL of the above test emulsion was diluted with 7600 μL of water to use as a test spray liquid.
(§9) Further, 400 μL of the above test emulsion was diluted with 1600 μL of a 1% Tween20 aqueous solution to use as a spray liquid for a small amount spray test.
(§10) For a comparative spray liquid, 53 μL of a 30% pendimethalin emulsion (Gogosan emulsion: manufactured by BASF Japan) as a control pesticides was diluted with 7947 μL of water. Further, for a comparative spray liquid for a small amount spray test, 53 μL of the 30% pendimethalin emulsion was diluted with 1947 μL of water.
(§11) A 150 cm^2 pot was filled with a soil, seeds of each purple amaranth, Japanese bristlegrass, southern crabgrass, and velvet leaf were sown on the surface layer, lightly covered with a soil and grown in a greenhouse. When each plant grew to a plant height of 2 to 9 cm, the test spray liquid was sprayed to the stem and leaf parts with a small spraying machine such that an active ingredient amount was 2000 g per hectare and a sprayed liquid amount was 1000 L per hectare.
(§12) Similarly, the test spray liquid for a small amount spray test was sprayed to the stem and leaf parts with a small spraying machine such that an active ingredient amount was 2000 g per hectare and a sprayed liquid amount was 250 L per hectare.
(§13) Two weeks later, the above-ground grass weight in non-treated areas and the above-ground grass weight in treated areas, by the weed, were measured to calculate a killing weed rate by the following calculating formula.
(§14) (a) Calculating Formula of Weeding Rate Killing weed rate (%)=(above-ground grass weight in non-treated area−above-ground grass weight in treated area)/(above-ground grass weight in non-treated area)×100 (b) Killing Weed Indexes
(§15) The obtained killing weed rates were evaluated, such that a killing weed index was “10” when a killing weed rate is 100%, as “9” when a killing weed rate is 99% to 90%, “8” when a killing weed rate is 89% to 80%, “7” when a killing weed rate is 79% to 70%, “6” when a killing weed rate is 69% to 60%, “5” when a killing weed rate is 59% to 50%, “4” when a killing weed rate is 49% to 40%, “3” when a killing weed rate is 39% to 30%, “2” when a killing weed rate is 29% to 20%, “1” when a killing weed rate is 19% to 10%, and “0” when a killing weed rate is 9% to 0%.

purple amaranth = assay: as above; type: in vivo; conditions: 2000 g active ingredient per hectare, two weeks later
Method: as §7, §8, §9, §10, §11, §12, §13, §14, §15

southern crabgrass = assay: as above; type: in vivo; conditions: 2000 g active ingredient per hectare, two weeks later
Method: as §7, §8, §9, §10, §11, §12, §13, §14, §15

velvet leaf [2] = assay: as above; type: in vivo; conditions: 2000 g active ingredient per hectare, two weeks later
Method: as §7, §8, §9, §10, §11, §12, §13, §14, §15

[3] = 200 μM, 6 days (9a, 9b: 7 days)
[4] = sprayed liquid amount 1000 L/ha

`O=C(O)c1cccn1OCc1ccc(Oc2ccccc2)cc1` [Compound 8f] was tested, and the “index on the plant growth inhibition effect” value (thale cress; 200 μM, 8 days (Evaluation 8)) was 3, the “plant growth inhibition index, Japanese millet” value (Japanese millet; [3]) was 3 (Growth of the stem and leave parts was inhibited 30% or more compared with non-treated area, or growth of the only root part was inhibited 60% or more compared with non-treated area.) and the “plant growth inhibition index, Japanese millet” value (Japanese millet; 800 μM, 6 days) was 4 (Growth of the stem and leave parts was inhibited 40% or more compared with non-treated area, or growth of the only root part was inhibited 80% or more compared with non-treated area.). The “plant growth inhibition index, Ragweed” value (Ragweed; [3]) was 0, the “plant growth inhibition index, Ragweed” value (Ragweed; 800 μM, 6 days) was 5 (Growth of the stem and leave parts was inhibited 50% or more compared with non-treated area, or growth of the only root part was inhibited 100% or more compared with non-treated area.) and the “plant growth inhibition index, Morning glory” value (morning glory; [3]) was 0. For the same compound, the “plant growth inhibition index, Morning glory” value (morning glory; 800 μM, 6 days) was 0, the “plant growth inhibition index, Velvet leaf” value (velvet leaf [1]; [3]) was 0 and the “plant growth inhibition index, Velvet leaf” value (velvet leaf [1]; 800 μM, 6 days) was 5 (Growth of the stem and leave parts was inhibited 50% or more compared with non-treated area, or growth of the only root part was inhibited 100% or more compared with non-treated area.).
For `CCCCCCCCCOn1cccc1C(=O)N(C)C` [Compound 9g], the Index (thale cress) was 3, the “plant growth inhibition index, Japanese millet” value (Japanese millet; [3]) was 3 (Growth of the stem and leave parts was inhibited 30% or more compared with non-treated area, or growth of the only root part was inhibited 60% or more compared with non-treated area.) and the “plant growth inhibition index, Japanese millet” value (Japanese millet; 800 μM, 6 days) was 4 (Growth of the stem and leave parts was inhibited 40% or more compared with non-treated area, or growth of the only root part was inhibited 80% or more compared with non-treated area.). For the same compound, the “plant growth inhibition index, Ragweed” value (Ragweed; [3]) was 5 (Growth of the stem and leave parts was inhibited 50% or more compared with non-treated area, or growth of the only root part was inhibited 100% or more compared with non-treated area.), the “plant growth inhibition index, Ragweed” value (Ragweed; 800 μM, 6 days) was 7 (Growth of the stem and leave parts was inhibited 70% or more compared with non-treated area.) and the “plant growth inhibition index, Morning glory” value (morning glory; [3]) was 0. The “plant growth inhibition index, Morning glory” value (morning glory; 800 μM, 6 days) was 0, the “plant growth inhibition index, Velvet leaf” value (velvet leaf [1]; [3]) was 3 (Growth of the stem and leave parts was inhibited 30% or more compared with non-treated area, or growth of the only root part was inhibited 60% or more compared with non-treated area.) and the “plant growth inhibition index, Velvet leaf” value (velvet leaf [1]; 800 μM, 6 days) was 3 (Growth of the stem and leave parts was inhibited 30% or more compared with non-treated area, or growth of the only root part was inhibited 60% or more compared with non-treated area.).
For `CCCCCCCCCOn1cccc1C(=O)N1CCOCC1` [Compound 9h], the Index (thale cress) was 3, the “plant growth inhibition index, Japanese millet” value (Japanese millet; [3]) was 3 (Growth of the stem and leave parts was inhibited 30% or more compared with non-treated area, or growth of the only root part was inhibited 60% or more compared with non-treated area.) and the “plant growth inhibition index, Japanese millet” value (Japanese millet; 800 μM, 6 days) was 6 (Growth of the stem and leave parts was inhibited 60% or more compared with non-treated area.). The “plant growth inhibition index, Ragweed” value (Ragweed; [3]) was 0, the “plant growth inhibition index, Ragweed” value (Ragweed; 800 μM, 6 days) was 6 (Growth of the stem and leave parts was inhibited 60% or more compared with non-treated area.) and the “plant growth inhibition index, Morning glory” value (morning glory; [3]) was 0. For the same compound, the “plant growth inhibition index, Morning glory” value (morning glory; 800 μM, 6 days) was 4 (Growth of the stem and leave parts was inhibited 40% or more compared with non-treated area, or growth of the only root part was inhibited 80% or more compared with non-treated area.), the “plant growth inhibition index, Velvet leaf” value (velvet leaf [1]; [3]) was 3 (Growth of the stem and leave parts was inhibited 30% or more compared with non-treated area, or growth of the only root part was inhibited 60% or more compared with non-treated area.) and the “plant growth inhibition index, Velvet leaf” value (velvet leaf [1]; 800 μM, 6 days) was 5 (Growth of the stem and leave parts was inhibited 50% or more compared with non-treated area, or growth of the only root part was inhibited 100% or more compared with non-treated area.).
In the case of `CCCCCOn1cc(-c2cccnc2)cc1C(=O)O` [Compound 9i], the Index (thale cress) is reported as 2 (Growth of the root part was inhibited 50% or more compared with non-treated area.), the “plant growth inhibition index, Japanese millet” value (Japanese millet; [3]) is reported as 3 (Growth of the stem and leave parts was inhibited 30% or more compared with non-treated area, or growth of the only root part was inhibited 60% or more compared with non-treated area.) and the “plant growth inhibition index, Japanese millet” value (Japanese millet; 800 μM, 6 days) is reported as 4 (Growth of the stem and leave parts was inhibited 40% or more compared with non-treated area, or growth of the only root part was inhibited 80% or more compared with non-treated area.). The “plant growth inhibition index, Ragweed” value (Ragweed; [3]) was 0, the “plant growth inhibition index, Ragweed” value (Ragweed; 800 μM, 6 days) was 4 (Growth of the stem and leave parts was inhibited 40% or more compared with non-treated area, or growth of the only root part was inhibited 80% or more compared with non-treated area.) and the “plant growth inhibition index, Morning glory” value (morning glory; [3]) was 0. The “plant growth inhibition index, Morning glory” value (morning glory; 800 μM, 6 days) was 10, the “plant growth inhibition index, Velvet leaf” value (velvet leaf [1]; [3]) was 0 and the “plant growth inhibition index, Velvet leaf” value (velvet leaf [1]; 800 μM, 6 days) was 6 (Growth of the stem and leave parts was inhibited 60% or more compared with non-treated area.).
For `CCC(CC)Nc1c([N+](=O)[O-])cc(C)c(C)c1[N+](=O)[O-]` [pendimethalin, reference compound], the “killing weed index, Japanese bristlegrass” value (Japanese bristlegrass) was 6 (“6” when a killing weed rate is 69% to 60%), the “killing weed index, Purple amaranth” value (purple amaranth; sprayed liquid amount 250 L/ha) was 6 (“6” when a killing weed rate is 69% to 60%) and the “killing weed index, Purple amaranth” value (purple amaranth; [4]) was 0 (“0” when a killing weed rate is 9% to 0%). For the same compound, the “killing weed index, Southern crabgrass” value (southern crabgrass; sprayed liquid amount 250 L/ha) was 6 (“6” when a killing weed rate is 69% to 60%), the “killing weed index, Southern crabgrass” value (southern crabgrass; [4]) was 6 (“6” when a killing weed rate is 69% to 60%) and the “killing weed index, Velvet leaf” value (velvet leaf [2]; sprayed liquid amount 250 L/ha) was 5 (“5” when a killing weed rate is 59% to 50%). The “killing weed index, Velvet leaf” value (velvet leaf [2]; [4]) was 4 (“4” when a killing weed rate is 49% to 40%).
